The subject of experiment [1] is HL-60 cells. Set-up: method as in PMID 24858546. Particulars: alamarBlue; previously tested compound; read-out: HL-60 IC50 ± SEM; cited from earlier work.
The subject of the next experiment is HCT116 cells. Nature of the experiment: alamarBlue cell viability assay, HCT116. The class given is cell-based. Particulars: Homo sapiens, HCT-116, 72 h, KRas mutant, read-out: HCT116 IC50 ± SEM. The text has this: (§1) Cell viability and proliferation assays were used to evaluate the in vitro cytotoxicity of all synthesised compounds in a variety of different cancer cell lines using the alamarBlue® viability assay and the results are presented in Table 1 and Table 2. The sensitivity of cancer cells to drugs can often be compromised by PIK3CA, Ras and BRAF mutations. To determine whether such mutations are critical to the efficacy of our new compounds we tested them in a range of cancerous cell lines expressing different mutations. Firstly, we used the HL-60 (human promyelocytic leukaemia, NRas mutated) cell line for general cytotoxicity screening of all compounds. […] Lastly, toxicity against MCF-10A, which is a non-tumorigenic epithelial cell line, was also assessed for one of the most promising compounds (4). The graphs representing the viability results with the HL-60, MCF-7, HeLa, HCT-116, and HKH-2 cancer cell lines for compound 1 and derivatives 2, 3, and 4 are shown in Figures S7–S10 (ESI).
(§2) Cells were counted and seeded in 96-well plates at a density of 2 × 10^5 cells/mL for HL-60, 2.5 × 10^4 cells/mL for MCF-7, MCF10A and HeLa, 1 × 10^5 cells/mL for HCT116 and HKH-2, all of them in their respective media. The 96-well plates were then treated with a 1:100 dilution of stock concentrations of drugs or EtOH (1% v/v)/DMSO (0.1% v/v) as vehicle control in triplicate. Three blank wells containing 200 µL RPMI with no cells were also set-up as blanks. After a 72 h incubation, 20 µL of alamarBlue was added to each well. The plates were incubated in darkness at 37 °C for 4–5 h using a Molecular Devices microplate reader, the fluorescence (F) was then read at an excitation wavelength of 544 nm and an emission wavelength of 590 nm. Cell viability was then determined by subtracting the mean blank fluorescence (Fb) from the treated sample fluorescence (Fs) and expressing this as a percentage of the fluorescence of the blanked vehicle control (Fc). […] The results were then plotted as a nonlinear regression, sigmoidal dose-response curves on Prism, from which the IC50 value for each drug was determined.
(§3) The MCF-7 (human breast tumour) cell line was obtained from Prof. Mary Meegan, School of Pharmacy, TCD. It was maintained in Roswell Park Memorial Institute (RPMI) 1640 medium with stable glutamate (GlutaMax I) supplemented with 10% (v/v) fetal bovine serum (FBS), 1% (v/v) penicillin/ streptomycin (pen-strep) and 2 mM L-glutamine.
(§4) The HeLa (human epitheloid cervix carcinoma) cell line was obtained from Prof. Thorfinnur Gunnlaugsson, School of Chemistry TCD. It was maintainedin Dulbecco's Modified Eagle's Medium (DMEM) supplemented with 10% (v/v) fetal bovine serum (FBS) and 1%(v/v) penicillin/ streptomycin (pen-strep).
(§5) The HCT116and HKH-2 (human colon cancer cells) cell lines were obtained from Prof. James Murray, School of Biochemistry and Immunology TCD. They were maintainedin Dulbecco's Modified Eagle's Medium (DMEM) supplemented with 10% (v/v) fetal bovine serum (FBS), 1% (v/v) penicillin/ streptomycin (pen-strep), 1% (v/v) sodium pyruvate (NaPyr), 1% (v/v) L-glutamine (L-Glu) and, only for HKH-2, 0.6 mg/mL geneticine (G418).
(§6) MCF-10A (human breast epithelial) cell line was obtained from Prof. Mary Meegan, School of Pharmacy, TCD. […]
(§7) Cells were counted and seeded in 96 well plates at a density of 2 × 10^5 cells/mL for HL-60, 2.5× 10^4 cells/mL for MCF-7, MCF10A and HeLa, 1 × 10^5 cells/mL for HCT116 and HKH-2, all of them in their respective media. […]

In a further experiment the test system is HeLa cells. Description: alamarBlue cell viability assay, HeLa. The class given is cell-based. The following applies: Homo sapiens, 72 h, read-out: HeLa IC50 ± SEM.
Source text: as §1, §2, §3, §4, §5, §6, §7
(In general: The colour change of resazurin is a common sign of viable cells or microbes.)

Experiment [2] concerns ERK phosphorylation (MAPK/ERK pathway). Description: Western immunoblot of ERK phosphorylation in HL-60 extracts. The class given is cell-based, human. Particulars: HL-60, 5 and 10 μM, 16 h. On the procedure:
Thus, using Western immunoblot analysis of HL-60 extracts, we investigated the expression and phosphorylation levels of ERK (as an indication of ERK activation), which is the downstream effector of the Ras/BRAF signalling pathway (Figure 6).
HL60s were seeded in T25 flasks at 50 × 10^4 cells/mL and cells were treated with either vehicle [0.5% EtOH (v/v)], 1–4, 9 or 52 (5 µM), as well as 1 (10 µM as reported). After 16 h, cells were collected and washed with PBS. Cell pellets were re-suspended in cold cell lysis buffer (radio-immunoprecipitation assay buffer) supplemented with 1% phosphatase inhibitor cocktail 2 and 3 (Sigma) and 10% protease inhibitor (Roche). Cells were lysed for 30 min on ice. Protein concentration was then determined by BCA assay. Lysates were boiled with Laemmli sample buffer [Tris-HCL 50 mM (pH 6.7), glycerol 10% (w/v), sodium dodecyl sulphate 2% (w/v), bromophenol blue 0.02% (w/v)] containing DTT […] for 10 min at 90 °C. Moreover, 20 µg of lysates were resolved by sodium dodecyl sulphate polyacrylamide gel electrophoresis (SDS-PAGE) and transferred onto PVDF transfer membrane (EMD Millipore). Membranes were blocked with 5% non-fat milk and probed with primary antibodies for ERK and phospho-ERK (Cell Signalling). Anti-GAPDH was used as a loading control (Calbiochem).
Figure 6 Western immunoblot of HL-60 cell extracts following incubation with compounds 2, 3, 4, 9, 52 and 1 (as a control). HL60 cells were seeded at 2 × 10^5 cells/mL and were treated with either vehicle [0.5% EtOH (v/v)], compounds 52, 2, 9, 3 and 4 (5 µM) or compound 1 (5 and (*) 10 µM, as in reference) for 16 h. Cells were lysed and equal amounts of protein were loaded and separated on 15% SDS-PAGE gels, transferred to PVDF membrane and probed with antibodies against total and phosphorylated ERK. Anti-GAPDH was used as a loading control. Results are representative of 2 independent experiments.
HL-60 cells were seeded in T25 flasks at 50 x10^4 cells/mL and treated with either vehicle [0.5% […]
After 16 hours, cells were […]
collected and washed with PBS. Cell pellets were re-suspended in cold cell lysis buffer (radio-immunoprecipitation assay buffer) supplemented with 1% phosphatase inhibitor cocktail 2 and 3 (Sigma) and 10% protease inhibitor (Roche). Cells were lysed for 30 minutes on ice.
Protein concentration was then determined by BCA assay. Lysates were boiled with laemmli sample buffer [Tris-HCL 50 mM (pH 6.7), glycerol 10% (w/v), sodium dodecyl sulphate 2% (w/v), bromophenol blue 0.02% (w/v)] containing DTT […] for 10 min. at 90 °C. Also 20 µg of lysates were resolved by sodium dodecyl sulphate polyacrylamide gel electrophoresis (SDS - PAGE) and transferred onto PVDF transfer membrane (EMD Millipore). Membranes were blocked with 5% non-fat milk and probed with primary antibodies for ERK and phospho-ERK (Cell Signaling). Anti-GAPDH was used as a loading control (Calbiochem).

In a further experiment the test system is MCF-7 cells. Description: alamarBlue cell viability assay, MCF-7. In kind it is cell-based. Particulars: Homo sapiens, MCF7, 72 h, read-out: MCF-7 IC50 ± SEM.
Source text: as §1, §2, §3, §4, §5
MCF-10A (human breast epithelial) cell line was obtained from Prof. Mary Meegan, School of Pharmacy, TCD. It was cultured in Dulbecco’s Modified Eagle Medium/Nutrient Mixture F-12 (DMEM/F12; Gibco) supplemented with 5% horse serum (Invitrogen), 20 ng/mL epidermal growth factor (Merck Millipore), 0.5 μg/mL hydrocortisone (Sigma), 100 ng/mL cholera toxin (Sigma), 10 μg/mL insulin (Sigma), and penicillin/streptomycin (1% v/v) (Gibco).
(§8) 4.4. AlamarBlue ® Cell Viability Assay
Cells were counted and seeded in 96 well plates at a density of 2 × 10^5 cells/mL for HL-60, 2.5× 10^4 cells/mL for MCF-7, MCF10A and HeLa, 1 × 10^5 cells/mL for HCT116 and HKH-2, all of them in their respective media. The 96 well plates were then treated with a 1:100 dilution of stock concentrations of drugs or EtOH (1% v/v)/DMSO (0.1% v/v) as vehicle control in triplicate. […]

In the next experiment the test system is HKH-2 cells. Description: alamarBlue cell viability assay, HKH-2. In kind it is cell-based. Particulars: Homo sapiens, 72 h, mutated KRas disrupted, read-out: HKH-2 IC50 ± SEM.
Source text: as §1, §2, §3, §4, §5, §6, §7

For experiment [3], the system named is BRAF. Set-up: method as in PMID 24858546, PMID 26318998. The following applies: in vitro; cited from earlier work.
Experiment [4] concerns BRAF. Set-up: method as in PMID 24858546, PMID 26318998. Particulars: cited from earlier work.
For experiment [5], the system named is HL-60 cells. Description: alamarBlue cell viability assay, HL-60. In kind it is cell-based. Particulars: Homo sapiens, HL-60, 72 h, read-out: HL-60 IC50 ± SEM.
Source text: as §1
as §2, with “determined. […]” for “determined.”
Pharmacy, TCD. It was maintained in Roswell Park Memorial Institute (RPMI) 1640 medium with stable glutamate (GlutaMax I) supplemented with 10% (v/v) fetal bovine serum (FBS), 1% (v/v) penicillin/ streptomycin (pen-strep) and 2 mM L-glutamine. […]
as §8
Cells were counted and seeded in 96 well plates at a density of 2 × 10^5 cells/mL for HL-60, 2.5× 10^4 cells/mL for MCF-7, MCF10A and HeLa, 1 × 10^5 cells/mL for HCT116 and HKH-2, all of them in their respective media. The 96 well plates were then treated with a 1:100 dilution of stock concentrations of drugs or EtOH (1% v/v)/DMSO (0.1% v/v) as vehicle control in triplicate.
Three blank wells containing 200 µL media with no cells were also set-up as blanks. After a 72 h incubation, 20 µL of AlamarBlue was added to each well. The plates were incubated in darkness at 37 °C for 4-5 h. Using a Molecular Devices microplate reader, the fluorescence (F) was then read at an excitation wavelength of 544 nm and an emission wavelength of 590 nm.
Cell viability was then determined by subtracting the mean blank fluorescence (Fb) from the treated sample fluorescence (Fs) and expressing this as a percentage of the fluorescence of the blanked vehicle control (Fc). […] The results were […]
then plotted as a nonlinear regression, sigmoidal dose-response curves on Prism, from which the IC50 value for each drug was determined.
Fs − Fb x 100 = % Cell Viability
60 cell line in a dose-dependent manner.
(1 picture or pasted object on this page, not shown here)

Entries after “also recorded” stand apart in the source; their conditions may differ. Counter-ions that a name gives are not always drawn. Like-named read-outs stand apart in the source and are kept apart here.

As usually defined, the IC50 is the concentration that gives 50% inhibition. `N=C(N)Nc1ccc(Oc2cccc(NC(=N)Nc3ccc(Cl)c(C(F)(F)F)c3)c2)cc1` [Compound 1]: the IC50 in the experiment with HL-60 cells [1] is 9.72 ± 0.9 µM; in the experiment with HCT116 cells, 9.96 ± 0.6 µM; in the experiment with HeLa cells, 9.48 ± 0.16 µM; in the experiment with MCF-7 cells it was 9.3 ± 1.87 µM; in the experiment with HKH-2 cells, 19.2 ± 0.84 µM. For the same compound, the “effect on ERK phosphorylation (Ras/BRAF pathway)” value in experiment [2] was “inhibiting ERK phosphorylation; also recorded: abrogates ERK activation”. For the same compound, the “BRAF activity in radiometric assay” value in the experiment on BRAF [3] is “inhibited in vitro”. Also, the “inhibition of ATP binding to BRAF” value in the experiment on BRAF [4] was “did not inhibit ATP binding to BRAF”.
`N=C(N)Oc1ccc(Oc2cccc(Nc3ccc(Cl)c(C(F)(F)F)c3)c2)cc1` [Compound 70, 4-(3-((4-Chloro-3-(trifluoromethyl)phenyl)amino)phenoxy)phenyl carbamimidate hydrochloride]: the IC50 came to 4.22 ± 0.04 µM in the experiment with HL-60 cells [5] (alamarBlue, 72 h) and 7.32 ± 0.35 µM in the experiment with MCF-7 cells.
Regarding `CNC(=O)c1cc(Oc2ccc(NC(=O)Nc3ccc(Cl)c(C(F)(F)F)c3)cc2)ccn1` [Sorafenib, reference compound], the IC50 with HL-60 cells [5] was determined as 2.53 ± 0.68 µM; with HCT116 cells it was 6.79 ± 0.18 µM; in the experiment on HeLa cells, 4.59 ± 0.45 µM; in the experiment on MCF-7 cells, 3.07 ± 0.1 µM; in the experiment with HKH-2 cells, 4.43 ± 0.39 µM.
